From PMC12136240 (Cell chemical biology, 2024)
pKd: −log10 of the molar value.

Legend:
His6-CRBN/DDB1 = His6-CRBN/DDB1 (Homo sapiens, UniProt Q96SW2); assay: TR-FRET ligand displacement assay; type: binding; conditions: for fold difference in KD between POM and POM-cN: monofunctional compounds, POM binds more tightly
[1] = target: GSPT1-GFP in HEK293T cells (Homo sapiens, UniProt P15170); assay: Off-target degradation of GSPT1 by flow cytometry; type: cell-based; conditions: 24 h
[2] = test system: zinc-finger (ZF) degrons fused to GFP in U2OS cells; assay: Off-target degradation of ZF degrons by flow cytometry; type: cell-based; conditions: 32 nM to 20 μM, 24 h
[3] = test system: His6-CRBN/DDB1 in the presence of GST-BRD4(BD2); assay: TR-FRET ternary complex / cooperativity assay with 1 μM BD2; type: binding; conditions: Alpha = KD,CRBN[binary]/KD,CRBN[ternary]
[4] = test system: His6-CRBN/DDB1 in the presence of GST-BRD4(BD1); assay: TR-FRET ternary complex / cooperativity assay with 1 μM BD1; type: binding; conditions: Alpha = KD,CRBN[binary]/KD,CRBN[ternary]
[5] = target: endogenous BRD4 in MDA-MB-231 cells (Homo sapiens, UniProt O60885); type: cell-based; conditions: 5 h (Fig. 3b)
[6] = target: BRD4(BD1)-GFP in HEK293T cells (Homo sapiens, UniProt O60885+Q96SW2); assay: TR-FRET quantification of BRD4; conditions: for DC50: read-out: DC50(BD1), HEK293T BRD4(BD1)-GFP reporter cells
[7] = target: BRD4(BD2)-GFP in HEK293T cells (Homo sapiens, UniProt O60885+Q96SW2); assay: TR-FRET quantification of BRD4; conditions: for DC50: read-out: DC50(BD2), HEK293T BRD4(BD2)-GFP reporter cells, 4 h
BRD4 BD1 bromodomain = conditions: read-out: KD for BD1; cited from earlier work
BRD4 BD2 bromodomain = conditions: read-out: KD for BD2; cited from earlier work
BRD4 in HEK293T cells = BRD4 in HEK293T cells (Homo sapiens, UniProt O60885); assay: BRD4 degradation assay, western blot; type: cell-based; conditions: 4 h, 100 nM–10 μM dose-response
[8] = target: His6-CRBN/DDB1–GST-BRD4(BD1) ternary complex (Homo sapiens, UniProt O60885+Q96SW2); assay: TR-FRET off-rate measurement of the ternary complex, BD1; type: binding; conditions: BRD4 dissociation triggered by excess JQ1

**Q.** For `Nc1cccc2c1C(=O)N(C1CC(=O)NC1=O)C2=O` (stereo not drawn) [POM-cN], which “fold difference in KD between POM and POM-cN” value (His6-CRBN/DDB1) is on record?
**A.** ~ 500 fold

**Q.** For `Cc1sc2c(c1C)C(c1ccc(Cl)cc1)=N[C@@H](CC(=O)NCCCCCCCCNC(=O)COc1cccc3c1C(=O)N(C1CCC(=O)NC1=O)C3=O)c1nnc(C)n1-2` (stereo partly drawn) [dBET6], which “Dmax, off-target degradation of GSPT1” value [1] is on record?
**A.** ≤ 9%

**Q.** What about the “Dmax, off-target degradation of ZF degrons” value [2] of the same molecule?
**A.** ≈ 6%

**Q.** And the “cooperativity with BRD4(BD2), in words” value [3]?
**A.** negative cooperativity

**Q.** And the “cooperativity with BRD4(BD1), in words” value [4]?
**A.** negative cooperativity

**Q.** For `Nc1cccc2c1C(=O)N(C1CCC(=O)NC1=O)C2=O` (stereo not drawn) [POM, pomalidomide], which “fold difference in KD between POM and POM-cN” value (His6-CRBN/DDB1) is on record?
**A.** ~ 500 fold

**Q.** Which results are given for `Cc1sc2c(c1C)C(c1ccc(Cl)cc1)=N[C@@H](CC(=O)NCCCCCCCCC(=O)N[C@@H](C)C(=O)N[C@H]1CCC(=O)NC1=O)c1nnc(C)n1-2` [JQ1-AcQ]?
**A.** endogenous BRD4 degradation potency, in words [5]: one of the most potent BRD4 degraders; DC50 ([6]; 4 h): 0.041 µM; DC50 [7]: 0.078 µM

**Q.** With `Cc1sc2c(c1C)C(c1ccc(Cl)cc1)=N[C@@H](CC(=O)OC(C)(C)C)c1nnc(C)n1-2` [JQ1] as the molecule, how does the pKd (BRD4 BD1 bromodomain) read?
**A.** 7.30

**Q.** And the pKd (BRD4 BD2 bromodomain)?
**A.** 7.05

**Q.** What does the source list for `Cc1sc2c(c1C)C(c1ccc(Cl)cc1)=N[C@@H](CC(=O)NCCCCCCCCC(=O)N[C@@H](Cc1ccccc1)C(=O)N[C@H]1CC(=O)NC1=O)c1nnc(C)n1-2` [JQ1-FcN]?
**A.** pKd (His6-CRBN/DDB1; read-out: KD against His6-CRBN/DDB1 (binary), competition binding with Thal-FITC): > 7.00; BRD4 degradation, western blot, in words (BRD4 in HEK293T cells): efficient degradation of BRD4 at a concentration of 100 nM

**Q.** Which “Dmax, off-target degradation of GSPT1” value [1] does the source give for `Cc1sc2c(c1C)C(c1ccc(Cl)cc1)=N[C@@H](CC(=O)Nc1ccc(OCCOCCOCCOCCNc3cccc4c3C(=O)N(C3CCC(=O)NC3=O)C4=O)cc1)c1nnc(C)n1-2` (stereo partly drawn) [ARV-825] here?
**A.** ≤ 1%

**Q.** And the “degradation of C2H2 zinc finger targets including IKZF3 and ZFP91, in words” value [2]?
**A.** fast and rapid degradation

**Q.** What does the source list for `Cc1sc2c(c1C)C(c1ccc(Cl)cc1)=N[C@@H](CC(=O)NCCCCCCCCC(=O)N[C@@H](Cc1ccc(O)cc1)C(=O)N[C@H]1CCC(=O)NC1=O)c1nnc(C)n1-2` [JQ1-YcQ]?
**A.** stability of the ternary complex with BRD4(BD1), in words [8]: most stable and long-lived complexes; time to reach maximum level of degradation (Dmax), BRD4(BD1) ([6]; HEK293T BRD4(BD1)-GFP cells): 1.5 h; fold difference in DC50 between BD1 and BD2 ([6]; HEK293T reporter cells, 4 h, more potent on BD1): 5–10 fold; DC50 ([6]; 4 h): 0.103 µM; time to reach maximum level of degradation (Dmax), BRD4(BD2) ([7]; HEK293T BRD4(BD2)-GFP cells): 3 h; DC50 [7]: 0.513 µM
